According to PubChem BioAssay (NCI):
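Grown in 96-well plates, cells were treated for 48 hours with each compound at five concentrations. Insufficient inhibition: endpoint recorded as highest concentration tested. TGI is the concentration that stops growth completely.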

How the values were obtained:
Assay in all cases: inhibition of tumour cell growth, NCI panel, 48 h
SK-MEL-28 melanoma = system: SK-MEL-28 melanoma
UO-31 renal = system: UO-31 renal
CAKI-1 renal = system: CAKI-1 renal
DMS 114 small cell lung = system: DMS 114 small cell lung
HL-60(TB) leukemia = system: HL-60(TB) leukemia
EKVX NSCLC = system: EKVX NSCLC
TK-10 renal = system: TK-10 renal
HOP-92 NSCLC = system: HOP-92 NSCLC
A549 NSCLC = system: A549 NSCLC
SF-295 CNS = system: SF-295 CNS
KM20L2 colon = system: KM20L2 colon
DLD-1 colon = system: DLD-1 colon
SN12C renal = system: SN12C renal
OVCAR-4 ovarian = system: OVCAR-4 ovarian
MOLT-4 leukemia = system: MOLT-4 leukemia
SW-620 colon = system: SW-620 colon
U251 CNS = system: U251 CNS
HT29 colon = system: HT29 colon
RXF 393 renal = system: RXF 393 renal
HCT-15 colon = system: HCT-15 colon
CCRF-CEM leukemia = system: CCRF-CEM leukemia
786-0 renal = system: 786-0 renal
OVCAR-3 ovarian = system: OVCAR-3 ovarian
SK-MEL-2 melanoma = system: SK-MEL-2 melanoma
RPMI-8226 leukemia = system: RPMI-8226 leukemia
SNB-78 CNS = system: SNB-78 CNS
ACHN renal = system: ACHN renal
XF 498 CNS = system: XF 498 CNS
HOP-18 NSCLC = system: HOP-18 NSCLC
MALME-3M melanoma = system: MALME-3M melanoma
SNB-75 CNS = system: SNB-75 CNS
KM12 colon = system: KM12 colon
SNB-19 CNS = system: SNB-19 CNS
M14 melanoma = system: M14 melanoma
HCC-2998 colon = system: HCC-2998 colon
NCI-H226 lung = system: NCI-H226 lung
SF-268 CNS = system: SF-268 CNS
OVCAR-8 ovarian = system: OVCAR-8 ovarian
SR leukemia = system: SR leukemia
NCI-H522 lung = system: NCI-H522 lung
UACC-257 melanoma = system: UACC-257 melanoma
M19-MEL melanoma = system: M19-MEL melanoma
OVCAR-5 ovarian = system: OVCAR-5 ovarian
NCI-H460 lung = system: NCI-H460 lung
LOX IMVI melanoma = system: LOX IMVI melanoma
SK-MEL-5 melanoma = system: SK-MEL-5 melanoma
K-562 leukemia = system: K-562 leukemia
NCI-H23 lung = system: NCI-H23 lung
SK-OV-3 ovarian = system: SK-OV-3 ovarian
HOP-62 NSCLC = system: HOP-62 NSCLC
HCT-116 colon = system: HCT-116 colon
DMS 273 small cell lung = system: DMS 273 small cell lung
COLO 205 colon = system: COLO 205 colon
LXFL 529 NSCLC = system: LXFL 529 NSCLC
IGROV1 ovarian = system: IGROV1 ovarian
MDA-N = system: MDA-N
BT-549 breast = system: BT-549 breast
MDA-MB-435 = system: MDA-MB-435
HS 578T breast = system: HS 578T breast
NCI/ADR-RES ovarian = system: NCI/ADR-RES ovarian
PC-3 prostate = system: PC-3 prostate
UACC-62 melanoma = system: UACC-62 melanoma
MCF7 breast = system: MCF7 breast
A498 renal = system: A498 renal
MDA-MB-231 breast = system: MDA-MB-231 breast
T-47D breast = system: T-47D breast
DU-145 prostate = system: DU-145 prostate
SF-539 CNS = system: SF-539 CNS

Cc1cccc2c1C(=O)OC2(C)c1cccc2ccccc12 (centres undefined)
TGI (SK-MEL-28 melanoma): > 100 µM
TGI (UO-31 renal): > 100 µM
TGI (CAKI-1 renal): > 100 µM
TGI (DMS 114 small cell lung): > 100 µM
TGI (HL-60(TB) leukemia): 46.2 µM
TGI (EKVX NSCLC): > 100 µM
TGI (TK-10 renal): 95.2 µM
TGI (HOP-92 NSCLC): 61.4 µM
TGI (A549 NSCLC): > 100 µM
TGI (SF-295 CNS): > 100 µM
TGI (KM20L2 colon): 59.5 µM
TGI (DLD-1 colon): > 100 µM
TGI (SN12C renal): 56 µM
TGI (OVCAR-4 ovarian): 67.4 µM
TGI (MOLT-4 leukemia): 88.8 µM
TGI (SW-620 colon): > 100 µM
TGI (U251 CNS): 73.8 µM
TGI (HT29 colon): > 100 µM
TGI (RXF 393 renal): 84.6 µM
TGI (HCT-15 colon): > 100 µM
TGI (CCRF-CEM leukemia): 80.4 µM
TGI (786-0 renal): > 100 µM
TGI (OVCAR-3 ovarian): 78.8 µM
TGI (SK-MEL-2 melanoma): > 100 µM
TGI (RPMI-8226 leukemia): > 100 µM
TGI (SNB-78 CNS): > 100 µM
TGI (ACHN renal): > 100 µM
TGI (XF 498 CNS): 86 µM
TGI (HOP-18 NSCLC): > 100 µM
TGI (MALME-3M melanoma): > 100 µM
TGI (SNB-75 CNS): 87.7 µM
TGI (KM12 colon): > 100 µM
TGI (SNB-19 CNS): > 100 µM
TGI (M14 melanoma): 40.7 µM
TGI (HCC-2998 colon): 50.9 µM
TGI (NCI-H226 lung): 57.2 µM
TGI (SF-268 CNS): > 100 µM
TGI (OVCAR-8 ovarian): > 100 µM
TGI (SR leukemia): 68.7 µM
TGI (NCI-H522 lung): 40.4 µM
TGI (UACC-257 melanoma): > 100 µM
TGI (M19-MEL melanoma): > 100 µM
TGI (OVCAR-5 ovarian): > 100 µM
TGI (NCI-H460 lung): > 100 µM
TGI (LOX IMVI melanoma): > 100 µM
TGI (SK-MEL-5 melanoma): 45.3 µM
TGI (K-562 leukemia): > 100 µM
TGI (NCI-H23 lung): > 100 µM

O=c1n(CCCCn2c(=O)n(CC3CS3)c3ccccc32)c2ccccc2n1CC1CS1 (centres undefined)
TGI (SK-OV-3 ovarian): > 100 µM
TGI (CAKI-1 renal): 35.5 µM
TGI (HL-60(TB) leukemia): 6.34 µM
TGI (HOP-62 NSCLC): 43.9 µM
TGI (EKVX NSCLC): 76.2 µM
TGI (HOP-92 NSCLC): 86.5 µM
TGI (HCT-116 colon): 39.7 µM
TGI (SN12C renal): 36.5 µM
TGI (OVCAR-4 ovarian): 34 µM
TGI (MOLT-4 leukemia): 5.82 µM
TGI (DMS 273 small cell lung): 42.7 µM
TGI (SW-620 colon): 39.8 µM
TGI (HCT-15 colon): 33.2 µM
TGI (CCRF-CEM leukemia): 81.4 µM
TGI (OVCAR-3 ovarian): 29.4 µM
TGI (COLO 205 colon): 35.6 µM
TGI (SK-MEL-2 melanoma): 29 µM
TGI (RPMI-8226 leukemia): 30.3 µM
TGI (ACHN renal): 77.6 µM
TGI (XF 498 CNS): 20.6 µM
TGI (MALME-3M melanoma): 22.8 µM
TGI (SNB-75 CNS): 61.4 µM
TGI (KM12 colon): 24.2 µM
TGI (M14 melanoma): 23.2 µM
TGI (HCC-2998 colon): 35.9 µM
TGI (SF-268 CNS): > 100 µM
TGI (SR leukemia): 21.5 µM
TGI (NCI-H522 lung): 31.6 µM
TGI (M19-MEL melanoma): 45.8 µM
TGI (LXFL 529 NSCLC): 33.1 µM
TGI (IGROV1 ovarian): 32 µM
TGI (LOX IMVI melanoma): 14.4 µM
TGI (K-562 leukemia): 37.5 µM

CCCCCCCCCC1CC(=O)NCC(=O)NC(C(C)C)C(=O)NC(CC(C)C)C(=O)NC(C)C(=O)NC(C(C)C)C(=O)O1 (centres undefined)
TGI (MDA-N): > 100 µM
TGI (SK-MEL-28 melanoma): 36.6 µM
TGI (SK-OV-3 ovarian): 39.2 µM
TGI (UO-31 renal): > 100 µM
TGI (CAKI-1 renal): > 100 µM
TGI (BT-549 breast): > 100 µM
TGI (MDA-MB-435): 49.8 µM
TGI (HS 578T breast): 53 µM
TGI (NCI/ADR-RES ovarian): > 100 µM
TGI (HL-60(TB) leukemia): > 100 µM
TGI (PC-3 prostate): 22.4 µM
TGI (UACC-62 melanoma): 83.7 µM
TGI (HOP-62 NSCLC): 55 µM
TGI (EKVX NSCLC): > 79.9 µM
TGI (TK-10 renal): 68.9 µM
TGI (HOP-92 NSCLC): 41.9 µM
TGI (A549 NSCLC): 40.9 µM
TGI (SF-295 CNS): 37 µM
TGI (HCT-116 colon): > 66.3 µM
TGI (SN12C renal): 80.2 µM
TGI (OVCAR-4 ovarian): 25.4 µM
TGI (MOLT-4 leukemia): > 52.4 µM
TGI (SW-620 colon): > 33.6 µM
TGI (U251 CNS): 29.7 µM
TGI (HT29 colon): 21.5 µM
TGI (RXF 393 renal): > 94.9 µM
TGI (HCT-15 colon): > 100 µM
TGI (CCRF-CEM leukemia): > 56.4 µM
TGI (786-0 renal): 35 µM
TGI (OVCAR-3 ovarian): 28.8 µM
TGI (COLO 205 colon): > 100 µM
TGI (SK-MEL-2 melanoma): > 65.8 µM
TGI (RPMI-8226 leukemia): > 86.8 µM
TGI (MCF7 breast): > 100 µM
TGI (ACHN renal): > 100 µM
TGI (A498 renal): > 55.4 µM
TGI (MALME-3M melanoma): > 61.9 µM
TGI (SNB-75 CNS): 18.2 µM
TGI (KM12 colon): 33.9 µM
TGI (SNB-19 CNS): > 48.2 µM
TGI (M14 melanoma): > 100 µM
TGI (HCC-2998 colon): > 96.2 µM
TGI (MDA-MB-231 breast): > 38.6 µM
TGI (T-47D breast): > 100 µM
TGI (NCI-H226 lung): > 69.1 µM
TGI (SF-268 CNS): 16.1 µM
TGI (OVCAR-8 ovarian): 18.2 µM
TGI (DU-145 prostate): > 74.9 µM
TGI (SR leukemia): > 92.4 µM
TGI (NCI-H522 lung): 35.2 µM
TGI (UACC-257 melanoma): > 88 µM
TGI (OVCAR-5 ovarian): > 64 µM
TGI (NCI-H460 lung): 23.6 µM
TGI (IGROV1 ovarian): > 100 µM
TGI (LOX IMVI melanoma): 30.8 µM
TGI (SF-539 CNS): 43.4 µM
TGI (SK-MEL-5 melanoma): > 61.6 µM
TGI (K-562 leukemia): > 53.3 µM
TGI (NCI-H23 lung): 42.2 µM

c1ccc(SC(CCCCOC2CCCCO2)Sc2ccccc2)cc1 (centres undefined)
TGI (SK-MEL-28 melanoma): > 100 µM
TGI (SK-OV-3 ovarian): > 100 µM
TGI (UO-31 renal): 76.5 µM
TGI (CAKI-1 renal): > 100 µM
TGI (DMS 114 small cell lung): > 100 µM
TGI (HL-60(TB) leukemia): 47.5 µM
TGI (UACC-62 melanoma): > 100 µM
TGI (HOP-62 NSCLC): > 100 µM
TGI (EKVX NSCLC): > 100 µM
TGI (TK-10 renal): > 100 µM
TGI (HOP-92 NSCLC): > 100 µM
TGI (A549 NSCLC): > 100 µM
TGI (SF-295 CNS): > 100 µM
TGI (HCT-116 colon): > 100 µM
TGI (DLD-1 colon): > 100 µM
TGI (SN12C renal): > 100 µM
TGI (OVCAR-4 ovarian): > 100 µM
TGI (MOLT-4 leukemia): > 100 µM
TGI (DMS 273 small cell lung): > 100 µM
TGI (SW-620 colon): > 100 µM
TGI (U251 CNS): > 100 µM
TGI (HT29 colon): > 100 µM
TGI (RXF 393 renal): > 100 µM
TGI (HCT-15 colon): > 100 µM
TGI (CCRF-CEM leukemia): 93.1 µM
TGI (786-0 renal): > 100 µM
TGI (OVCAR-3 ovarian): > 100 µM
TGI (COLO 205 colon): > 100 µM
TGI (SK-MEL-2 melanoma): > 100 µM
TGI (RPMI-8226 leukemia): > 100 µM
TGI (SNB-78 CNS): > 100 µM
TGI (ACHN renal): > 100 µM
TGI (XF 498 CNS): > 100 µM
TGI (A498 renal): > 100 µM
TGI (MALME-3M melanoma): > 100 µM
TGI (SNB-75 CNS): > 100 µM
TGI (KM12 colon): > 100 µM
TGI (SNB-19 CNS): > 100 µM
TGI (M14 melanoma): > 100 µM
TGI (HCC-2998 colon): > 100 µM
TGI (SF-268 CNS): > 100 µM
TGI (OVCAR-8 ovarian): > 100 µM
TGI (NCI-H522 lung): 53.8 µM
TGI (UACC-257 melanoma): > 100 µM
TGI (M19-MEL melanoma): > 100 µM
TGI (OVCAR-5 ovarian): > 100 µM
TGI (LXFL 529 NSCLC): > 100 µM
TGI (NCI-H460 lung): > 100 µM
TGI (IGROV1 ovarian): > 100 µM
TGI (LOX IMVI melanoma): > 100 µM
TGI (SF-539 CNS): > 100 µM
TGI (SK-MEL-5 melanoma): > 100 µM
TGI (K-562 leukemia): > 100 µM
TGI (NCI-H23 lung): > 100 µM
